Assay results from US20240041877A1, “DOSAGE REGIME AND METHOD FOR TREATING PULMONARY ARTERIAL HYPERTENSION” (Altavant Sciences GmbH, priority 2019, published 2024).

Test: Part 2 (MAD): plasma pharmacokinetics after BID oral KAR5585 for 14 days (incl. accumulation ratios and dose proportionality)
Details: for AUC0-12, Day 1 / AUC0-24, Day 14: mean
[1] = 100 mg KAR5585 BID, fasted, Part 2 Cohort 1
[2] = 100 mg KAR5585 BID, fed, Cohort 2
[3] = 100 mg KAR5585 BID, fed, Part 2 Cohort 2
[4] = 100 mg/dose Fasted Cohort 1, Day 1 AM, Geo. Mean
[5] = 100 mg/dose Fasted Cohort 1, Day 1 AM, Mean
[6] = 100 mg/dose Fasted Cohort 1, Day 14, Geo. Mean
[7] = 100 mg/dose Fasted Cohort 1, Day 14, Mean
[8] = 100 mg/dose Fed Cohort 2, Day 1 AM, Geo. Mean
[9] = 100 mg/dose Fed Cohort 2, Day 1 AM, Mean
[10] = 100 mg/dose Fed Cohort 2, Day 1 PM, Geo. Mean
[11] = 100 mg/dose Fed Cohort 2, Day 1 PM, Mean
[12] = 100 mg/dose Fed Cohort 2, Day 7 AM, Geo Mean
[13] = 100 mg/dose Fed Cohort 2, Day 7 AM, Mean
[14] = 100 mg/dose Fed Cohort 2, Day 7 PM, Geo Mean
[15] = 100 mg/dose Fed Cohort 2, Day 7 PM, Mean
[16] = 100 mg/dose Fed Cohort 2, Day 14, Geo Mean
[17] = 100 mg/dose Fed Cohort 2, Day 14, Mean
[18] = 200 mg/dose Fed Cohort 3, Day 1 AM, Geo Mean
[19] = 200 mg/dose Fed Cohort 3, Day 1 AM, Mean
[20] = 200 mg/dose Fed Cohort 3, Day 1 PM, Geo. Mean

Text: Food effect was to be evaluated in Part 1, Period 2.
Pharmacokinetic data were to be summarized descriptively.

For CCOC(=O)[C@@H]1CC2(CCN(c3cc(O[C@H](c4ccc(Cl)cc4-c4ccccc4)C(F)(F)F)nc(N)n3)CC2)CN1 [KAR5585, (S)-ethyl 8-(2-amino-6-((R)-1-(5-chloro-[1,1′-biphenyl]-2-yl)-2,2,2-trifluoroethoxy)pyrimidin-4-yl)-2,8-diazaspiro[4.5]decane-3-carboxylate], the “half-life, Day 14” value (100 mg KAR5585 BID, fasted) was 2.49 h, the “time peak plasma concentrations were reached, Day 1” value (100 mg KAR5585 BID, fasted, Cohort 1) was 0.75 to 2.0 h and the “AUC0-12, Day 1” value [1] was 62.8 ng·h/mL. The “AUC0-24, Day 14” value [1] was 99.8 ng·h/mL, the “Mean CL/F, Day 1” value (100 mg KAR5585 BID, fed) was 2100 L/h and the “Mean steady-state CL/F, Day 14” value (100 mg KAR5585 BID, fed) was 880 L/h. The “mean apparent elimination half-life, Day 14” value (100 mg KAR5585 BID, fed) was 2.73 h, the “Cmax (peak mean concentration), Day 1” value [2] was 18.4 ng/mL and the “Cmax (peak mean concentration), Day 14” value [2] was 30 ng/mL. The “mean Cmax plasma concentrations, range on all dosing days” value [2] was 18.4 to 44.1 ng/mL, the “median time to peak plasma concentrations, range on all dosing days and times” value [2] was 0.75 to 4 h and the “AUC0-12, Day 1” value [3] was 55.5 ng·h/mL. For the same molecule, the “AUC0-24, Day 14” value [3] was 122 ng·h/mL, the C12 [4] was “BLQ” and the CL/F [4] was 1850 L/h. The Cmax/D [4] was 0.158 (ng/mL)/mg, the AUC0-12 [5] was 62.8 ng·h/mL and the “AUC0-∞” value [5] was 71.1 ng·h/mL. For the same molecule, the C12 [5] was “BLQ”, the CL/F [5] was 2380 L/h and the Cmax/D [5] was 0.167 (ng/mL)/mg. It also gave a t1/2 [5] of 2.23 h, an AUC0-12 [6] of 78.2 ng·h/mL and an AUC0-24 [6] of 82.3 ng·h/mL. For the same molecule, the AUC0-24/D [6] was 0.823 (hr*ng/mL)/mg, the “AUC0-∞” value [6] was 85 ng·h/mL and the C24 [6] was “BLQ”. For the same molecule, the CL/F [6] was 1280 L/h, the Cmax [6] was 20.1 ng/mL and the Cmax/D [6] was 0.201 (ng/mL)/mg. It also gave a t1/2 [6] of 2.36 h, an AUC0-12 [7] of 92.4 ng·h/mL and an AUC0-24 [7] of 99.8 ng·h/mL. The AUC0-24/D [7] was 0.998 (hr*ng/mL)/mg, the “AUC0-∞” value [7] was 105 ng·h/mL and the C24 [7] was “BLQ”. The CL/F [7] was 1450 L/h, the Cmax/D [7] was 0.213 (ng/mL)/mg and the t1/2 [7] was 2.49 h. For the same molecule, the AUC0-12 [8] was 51.2 ng·h/mL, the “AUC0-∞” value [8] was 51.7 ng·h/mL and the C12 [8] was “BLQ”. For the same molecule, the CL/F [8] was 1940 L/h, the Cmax [8] was 17.7 ng/mL and the Cmax/D [8] was 0.177 (ng/mL)/mg. For the same molecule, the t1/2 [8] was 1.37 h, the AUC0-12 [9] was 55.5 ng·h/mL and the “AUC0-∞” value [9] was 55.9 ng·h/mL. For the same molecule, the C12 [9] was “BLQ”, the CL/F [9] was 2100 L/h and the Cmax [9] was 18.4 ng/mL. For the same molecule, the Cmax/D [9] was 0.184 (ng/mL)/mg, the t1/2 [9] was 1.42 h and the AUC0-12 [10] was 136 ng·h/mL. For the same molecule, the AUC0-24 [10] was 214 ng·h/mL, the AUC0-24/D [10] was 1.07 (hr*ng/mL)/mg and the “AUC0-∞” value [10] was 152 ng·h/mL. The CL/F [10] was 658 L/h, the Cmax [10] was 39.8 ng/mL and the Cmax/D [10] was 0.398 (ng/mL)/mg. For the same molecule, the t1/2 [10] was 1.82 h, the AUC0-12 [11] was 143 ng·h/mL and the AUC0-24 [11] was 226 ng·h/mL. For the same molecule, the AUC0-24/D [11] was 1.13 (hr*ng/mL)/mg, the “AUC0-∞” value [11] was 156 ng·h/mL and the CL/F [11] was 675 L/h. For the same molecule, the Cmax [11] was 44.1 ng/mL, the Cmax/D [11] was 0.441 (ng/mL)/mg and the t1/2 [11] was 1.87 h. The AUC0-12 [12] was 127 ng·h/mL, the “AUC0-∞” value [12] was 137 ng·h/mL and the C12 [12] was “BLQ”. For the same molecule, the CL/F [12] was 788 L/h, the Cmax [12] was 29.8 ng/mL and the Cmax/D [12] was 0.298 (ng/mL)/mg. The t1/2 [12] was 2.82 h, the AUC0-12 [13] was 129 ng·h/mL and the “AUC0-∞” value [13] was 139 ng·h/mL. The C12 [13] was “BLQ”, the CL/F [13] was 800 L/h and the Cmax [13] was 31.3 ng/mL. For the same molecule, the Cmax/D [13] was 0.313 (ng/mL)/mg, the t1/2 [13] was 2.86 h and the AUC0-12 [14] was 142 ng·h/mL. The AUC0-24 [14] was 278 ng·h/mL, the AUC0-24/D [14] was 1.39 (hr*ng/mL)/mg and the “AUC0-∞” value [14] was 168 ng·h/mL. It also gave a C12 [14] of 6.27 ng/mL, a CL/F [14] of 699 L/h and a Cmax [14] of 25.8 ng/mL. The Cmax/D [14] was 0.258 (ng/mL)/mg, the t1/2 [14] was 3.52 h and the AUC0-12 [15] was 145 ng·h/mL. The AUC0-24 [15] was 282 ng·h/mL, the AUC0-24/D [15] was 1.41 (hr*ng/mL)/mg and the “AUC0-∞” value [15] was 173 ng·h/mL. For the same molecule, the CL/F [15] was 717 L/h, the Cmax/D [15] was 0.284 (ng/mL)/mg and the t1/2 [15] was 3.80 h. The AUC0-12 [16] was 114 ng·h/mL, the AUC0-24 [16] was 121 ng·h/mL and the AUC0-24/D [16] was 1.21 (hr*ng/mL)/mg. The “AUC0-∞” value [16] was 121 ng·h/mL, the C12 [16] was “BLQ” and the C24 [16] was “BLQ”. For the same molecule, the CL/F [16] was 874 L/h, the Cmax [16] was 28.5 ng/mL and the Cmax/D [16] was 0.285 (ng/mL)/mg. It also gave a t1/2 [16] of 2.64 h, an AUC0-12 [17] of 115 ng·h/mL and an AUC0-24 [17] of 122 ng·h/mL. For the same molecule, the AUC0-24/D [17] was 1.22 (hr*ng/mL)/mg, the “AUC0-∞” value [17] was 122 ng·h/mL and the C12 [17] was “BLQ”. For the same molecule, the C24 [17] was “BLQ”, the CL/F [17] was 880 L/h and the Cmax [17] was 30.0 ng/mL. The Cmax/D [17] was 0.300 (ng/mL)/mg, the t1/2 [17] was 2.73 h and the “Mean CL/F, Day 1” value (200 mg KAR5585 BID, fed) was 830 L/h. For the same molecule, the “Mean steady-state CL/F, Day 14” value (200 mg KAR5585 BID, fed) was 1200 L/h, the “mean Cmax plasma concentrations, range on all dosing days” value (200 mg KAR5585 BID, fed, Cohort 3) was 42.6 to 90.9 ng/mL and the AUC0-12 [18] was 243 ng·h/mL. For the same molecule, the “AUC0-∞” value [18] was 258 ng·h/mL, the C12 [18] was 5.60 ng/mL and the CL/F [18] was 774 L/h. For the same molecule, the Cmax [18] was 80.7 ng/mL, the Cmax/D [18] was 0.403 (ng/mL)/mg and the t1/2 [18] was 2.81 h. For the same molecule, the AUC0-12 [19] was 257 ng·h/mL, the “AUC0-∞” value [19] was 275 ng·h/mL and the C12 [19] was 5.61 ng/mL. For the same molecule, the CL/F [19] was 830 L/h, the Cmax [19] was 87.8 ng/mL and the Cmax/D [19] was 0.439 (ng/mL)/mg. For the same molecule, the t1/2 [19] was 2.91 h, the AUC0-12 [20] was 333 ng·h/mL and the AUC0-24 [20] was 583 ng·h/mL. For the same molecule, the AUC0-24/D [20] was 1.46 (hr*ng/mL)/mg.
